Experimental data: ChEMBL document CHEMBL3233012, “Synthesis, antimicrobial and cytotoxic activities of pyrimidinyl benzoxazole, benzothiazole and benzimidazole” (Eur J Med Chem, 2014)
Values after ≈ are worked out from the molar mass of the structure shown. Active and inactive are the calls of the source. The calls are words filed in the database; no cut-off is given here.

What was measured:
[1] = system: Penicillium chrysogenum; experiment: Antimicrobial activity against Penicillium chrysogenum at 25 ug/well after 48 hrs by agar well diffusion method; assay type: functional; settings: read-out: DIZ
[2] = system: Aspergillus niger; experiment: Antimicrobial activity against Aspergillus niger after 24 hrs by broth dilution method; assay type: functional
[3] = system: Escherichia coli; experiment: Antimicrobial activity against Escherichia coli ATCC 25922 after 24 hrs by broth dilution method; assay type: functional
[4] = system: Aspergillus niger; experiment: Antimicrobial activity against Aspergillus niger at 50 ug/well after 48 hrs by agar well diffusion method; assay type: functional; settings: read-out: DIZ
[5] = system: Penicillium chrysogenum; experiment: Antimicrobial activity against Penicillium chrysogenum after 24 hrs by broth dilution method; assay type: functional
[6] = system: Penicillium chrysogenum; experiment: Antimicrobial activity against Penicillium chrysogenum at 100 ug/well after 48 hrs by agar well diffusion method; assay type: functional; settings: read-out: DIZ
[7] = system: Aspergillus niger; experiment: Antimicrobial activity against Aspergillus niger at 25 ug/well after 48 hrs by agar well diffusion method; assay type: functional; settings: for zone of inhibition at 25 µg/disc: read-out: DIZ
[8] = system: Aspergillus niger; experiment: Antimicrobial activity against Aspergillus niger at 100 ug/well after 48 hrs by agar well diffusion method; assay type: functional; settings: read-out: DIZ
[9] = system: Staphylococcus aureus; experiment: Antimicrobial activity against Staphylococcus aureus ATCC 25923 after 24 hrs by broth dilution method; assay type: functional
[10] = system: Penicillium chrysogenum; experiment: Antimicrobial activity against Penicillium chrysogenum at 50 ug/well after 48 hrs by agar well diffusion method; assay type: functional; settings: read-out: DIZ
[11] = system: Pseudomonas aeruginosa; experiment: Antimicrobial activity against Pseudomonas aeruginosa ATCC 27853 after 24 hrs by broth dilution method; assay type: functional
[12] = system: Escherichia coli; experiment: Antimicrobial activity against Escherichia coli at 50 ug/well after 24 hrs by agar well diffusion method; assay type: functional; settings: read-out: DIZ
[13] = system: Escherichia coli; experiment: Antimicrobial activity against Escherichia coli at 100 ug/well after 24 hrs by agar well diffusion method; assay type: functional; settings: read-out: DIZ
[14] = system: Pseudomonas aeruginosa; experiment: Antimicrobial activity against Pseudomonas aeruginosa at 50 ug/well after 24 hrs by agar well diffusion method; assay type: functional; settings: read-out: DIZ
[15] = system: Staphylococcus aureus; experiment: Antimicrobial activity against Staphylococcus aureus at 50 ug/well after 24 hrs by agar well diffusion method; assay type: functional; settings: read-out: DIZ
[16] = system: Pseudomonas aeruginosa; experiment: Antimicrobial activity against Pseudomonas aeruginosa at 25 ug/well after 24 hrs by agar well diffusion method; assay type: functional; settings: read-out: DIZ
[17] = system: Staphylococcus aureus; experiment: Antimicrobial activity against Staphylococcus aureus at 100 ug/well after 24 hrs by agar well diffusion method; assay type: functional; settings: read-out: DIZ
[18] = system: Escherichia coli; experiment: Antimicrobial activity against Escherichia coli at 25 ug/well after 24 hrs by agar well diffusion method; assay type: functional; settings: read-out: DIZ
[19] = system: Staphylococcus aureus; experiment: Antimicrobial activity against Staphylococcus aureus at 25 ug/well after 24 hrs by agar well diffusion method; assay type: functional; settings: read-out: DIZ
[20] = system: Pseudomonas aeruginosa; experiment: Antimicrobial activity against Pseudomonas aeruginosa at 100 ug/well after 24 hrs by agar well diffusion method; assay type: functional; settings: read-out: DIZ
[21] = system: A549; experiment: Cytotoxicity against human A549 cells assessed as reduction in cell viability up to 200 uM after 20 hrs by MTT assay; assay type: functional, cell-based

SMILES | zone of inhibition at 25 µg/disc [1] [mm] | MIC [2] | zone of inhibition at 50 µg/disc [4] [mm] | MIC [5] | zone of inhibition at 100 µg/disc [6] [mm] | zone of inhibition at 25 µg/disc [7] [mm] | zone of inhibition at 100 µg/disc [8] [mm] | zone of inhibition at 50 µg/disc [10] [mm] | zone of inhibition at 50 µg/disc [12] [mm] | zone of inhibition at 100 µg/disc [13] [mm] | zone of inhibition at 50 µg/disc [14] [mm] | zone of inhibition at 50 µg/disc [15] [mm] | zone of inhibition at 25 µg/disc [16] [mm] | zone of inhibition at 100 µg/disc [17] [mm] | zone of inhibition at 25 µg/disc [18] [mm] | zone of inhibition at 25 µg/disc [19] [mm] | zone of inhibition at 100 µg/disc [20] [mm] | Activity [21] | other results
CC(=O)N1CCN(c2ccc(OCC3COC(Cn4ccnc4)(c4ccc(Cl)cc4Cl)O3)cc2)CC1 (configuration not stated) [KETOCONAZOLE] | 35 | 6.25 µg/mL (≈ 11.8 µM) | 33 | 12.5 µg/mL (≈ 23.5 µM) | 38 | 31 | 36 | 36 | – | – | – | – | – | – | – | – | – | – | MIC [3]: inactive; MIC [9]: inactive; MIC [11]: inactive
O=C(O)c1cn(C2CC2)c2cc(N3CCNCC3)c(F)cc2c1=O [CIPROFLOXACIN] | – | inactive | – | inactive | – | – | – | – | 35 | 38 | 28 | 24 | 25 | 27 | 30 | 22 | 30 | – | MIC ([3]; ATCC 25922, 24 h): 12.5 µg/mL (≈ 37.7 µM); MIC ([9]; ATCC 25923, 24 h): 12.5 µg/mL (≈ 37.7 µM)
Cc1cc(Nc2nc3ccccc3o2)nc(SCc2nc3ccccc3o2)n1 | 19 | – | 17 | – | 24 | 15 | 19 | 21 | 17 | 20 | 14 | 13 | 11 | 17 | 12 | 10 | 17 | inactive | –
Cc1cc(Sc2nc3ccccc3[nH]2)nc(SCc2nc3ccccc3[nH]2)n1 | 15 | – | 15 | – | 19 | 14 | 17 | 17 | 20 | 22 | 17 | 16 | 14 | 19 | 17 | 13 | 18 | inactive | –
Cc1cc(Cl)nc(SCc2nc3ccccc3s2)n1 | 7 | – | 8 | – | 11 | – | 10 | 9 | 10 | 14 | 9 | 4 | 7 | 16 | 7 | 6 | 10 | inactive | diameter of the inhibition zone (DIZ) [7]: inactive
